Results published in patent publication US10167258B2, “Inhibitors of mitochondrial pyruvate dehydrogenase kinase isoforms 1-4 and uses thereof” (The Board of Regents of the University of Texas System, priority 2013, dated 2019).
Where two headings read alike, the source gives them in different places. Values belong to the compound of their own block, whether it stands above or below them.

What was measured:
PDK2 [1] = molecular target: T1, PDK2 (Homo sapiens, UniProt Q15119); test: Isothermal titration calorimetry (ITC), binding to PDK2; design: made in house
Experimental: (§1) Recombinant human PDK2 was expressed and purified as a N terminal His6-tagged SUMO fusion protein with a tobacco-etch-virus protease (TEV) cleavage site in front of the N-terminal PDK2 sequence (26), and was used directly for the activity assay and binding affinity analyses. […] The purified protein was concentrated to 35-40 mg/ml and stored at −80° C. in small aliquots. Recombinant human PDK1, PDK3 and PDK4 were expressed and purified as described previously (26).
(§2) The PDK2 or Hsp90 N-terminal domain protein was dialyzed against one liter of the dialysis buffer containing 50 mM Tris-Cl, pH 7.5, 50 mM KCl, 1 mM MgCl2, and 0.5 mM β-mercaptoethanol. […] All of the ITC data were initially analyzed by the NITPIC program (32) to construct the baseline, followed by curve-fitting in Origin 7 to obtain binding parameters.

PDK2 [2] = molecular target: T1, PDK2; test: Assay for inhibition of PDK activity, PDK2; assay type: biochemical; design: made in house
Experimental: as §1
(§3) The remaining steps were described previously (26). IC50 values were obtained by the curve fitting of inhibition isotherms using Prism 6 (GraphPad software, Inc.).

PDK4 [3] = molecular target: T2, PDK4 (Homo sapiens, UniProt Q16654); test: Assay for inhibition of PDK activity, PDK4; assay type: biochemical; design: made in house
Experimental: as §1, §3
Target sequence in this assay (Q16654 whole entry): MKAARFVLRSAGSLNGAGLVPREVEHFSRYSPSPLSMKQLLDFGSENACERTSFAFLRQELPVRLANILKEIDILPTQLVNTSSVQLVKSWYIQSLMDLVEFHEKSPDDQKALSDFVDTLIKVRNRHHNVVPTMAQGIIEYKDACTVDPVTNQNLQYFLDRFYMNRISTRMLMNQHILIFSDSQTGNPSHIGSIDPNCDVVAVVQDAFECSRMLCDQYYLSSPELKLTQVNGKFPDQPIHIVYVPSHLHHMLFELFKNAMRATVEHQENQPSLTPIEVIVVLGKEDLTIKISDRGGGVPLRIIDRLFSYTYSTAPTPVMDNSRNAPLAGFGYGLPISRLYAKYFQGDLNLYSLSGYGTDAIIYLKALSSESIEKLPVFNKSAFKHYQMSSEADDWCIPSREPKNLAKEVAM

PDK4 [4] = molecular target: T2, PDK4; details: literature value; cited from earlier work
Target sequence in this assay (Q16654 whole entry, species assumed): as the sequence (Q16654 whole entry) above

Hsp90 = details: literature value; cited from earlier work
PDK = details: literature value; read-out: IC50 (known PDK inhibitor); cited from earlier work
PDK3 [5] = molecular target: T3, PDK3 (Homo sapiens, UniProt Q15120); details: literature value; read-out: IC50 (ATP-competitive inhibitor, PDK3); cited from earlier work
Target sequence in this assay (Q15120 whole entry, species assumed, the tested form may be a part): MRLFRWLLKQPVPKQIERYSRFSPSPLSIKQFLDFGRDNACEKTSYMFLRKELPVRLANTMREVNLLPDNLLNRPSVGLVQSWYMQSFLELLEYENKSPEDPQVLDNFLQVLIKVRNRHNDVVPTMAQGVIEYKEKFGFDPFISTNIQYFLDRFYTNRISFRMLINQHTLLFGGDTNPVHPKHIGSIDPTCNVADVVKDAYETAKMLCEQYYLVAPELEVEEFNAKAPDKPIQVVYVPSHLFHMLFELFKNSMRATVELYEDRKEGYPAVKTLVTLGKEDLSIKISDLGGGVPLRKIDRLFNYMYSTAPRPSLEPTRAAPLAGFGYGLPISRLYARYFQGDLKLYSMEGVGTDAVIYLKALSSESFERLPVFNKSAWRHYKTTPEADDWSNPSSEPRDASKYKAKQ

[6] = molecular target: T4, N-terminal domain of human Hsp90 (Homo sapiens, UniProt P07900); test: Isothermal titration calorimetry (ITC), binding to Hsp90 N-terminal domain; details: read-out: Kd, nM for Hsp 90
T4 construct: the N-terminal domain (residue 1-236) of human Hsp90; His6 (N); SUMO (N); made in house; host or cells: E. coli BL21
Experimental: The sequence encoding the N-terminal domain was amplified and cloned into the pSUMO expression vector (Lifesensors, Malvern, Pa.). The fusion protein of His6-tagged SUMO-Hsp90 N-terminal domain was expressed in E. coli BL21 cells and purified with Ni-NTA resin (Qiagen) and on Superdex-200 column in 20 mM Tris.HCl, pH 7.5 and 500 mM NaCl.
as §2

PDK3 [7] = molecular target: T3, PDK3; test: Assay for inhibition of PDK activity, PDK3; assay type: biochemical; design: made in house
Experimental: (§4) Recombinant human PDK2 was expressed and purified as a N terminal His6-tagged SUMO fusion protein with a tobacco-etch-virus protease (TEV) cleavage site in front of the N-terminal PDK2 sequence (26), and was used directly for the activity assay and binding affinity analyses. For crystallization, the protein was subjected to a TEV-protease digestion, and the untagged PDK2 protein was purified on a Superdex 200 column in 20 mM Tris-HCl (pH 8.0), 150 mM NaCl and 5 mM DTT. The purified protein was concentrated to 35-40 mg/ml and stored at −80° C. in small aliquots. Recombinant human PDK1, PDK3 and PDK4 were expressed and purified as described previously (26).
(§5) . The remaining steps were described previously (26). IC50 values were obtained by the curve fitting of inhibition isotherms using Prism 6 (GraphPad software, Inc.).
Target sequence in this assay (Q15120 whole entry, the tested form may be a part): as the sequence (Q15120 whole entry, species assumed, the tested form may be a part) above

human PDK1 = molecular target: T5, human PDK1 (Homo sapiens, UniProt Q15118); test: Assay for inhibition of PDK activity, PDK1; assay type: biochemical
T5 construct: made in house
T5 sequence (Q15118 29-436): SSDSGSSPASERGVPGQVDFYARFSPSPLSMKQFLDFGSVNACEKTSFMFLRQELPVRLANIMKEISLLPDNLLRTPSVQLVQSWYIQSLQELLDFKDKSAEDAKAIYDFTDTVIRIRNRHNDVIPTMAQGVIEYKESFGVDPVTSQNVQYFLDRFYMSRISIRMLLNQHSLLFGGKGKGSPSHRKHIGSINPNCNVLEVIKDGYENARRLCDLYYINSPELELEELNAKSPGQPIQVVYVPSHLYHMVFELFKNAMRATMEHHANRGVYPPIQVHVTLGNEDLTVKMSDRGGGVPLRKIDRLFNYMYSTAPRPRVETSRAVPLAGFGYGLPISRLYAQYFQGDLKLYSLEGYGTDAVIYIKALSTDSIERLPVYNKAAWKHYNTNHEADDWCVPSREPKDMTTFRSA
Experimental: as §4, §5

PDK2 [8] = molecular target: T1, PDK2; test: biochemical
Experimental: The kinase-profiling of PS8 on 21 human protein kinases were performed at Reaction Biology Corp. (Malvern, Pa.). […] Each protein kinase was also tested against its known inhibitor as a positive control.
The selectivity of PS8 was studied by determining IC50 for the inhibition of a 21-kinase panel including PDK2. […] Except PDK4, PDK isoforms anchor to the E2/E3BP of PDC for optimal kinase activity in vivo.

[9] = Pharmacokinetic studies in mice after IP dosing; assay type: in vivo; details: 20 mg/kg IP, female CD-1 mice, plasma
Experimental: Twenty-one male C57BL/6J mice were dosed IP with 70 mg/kg PS-10, 0.2 ml/mouse formulated as 10% DMSO/20% water/70% of 25% (2-hydroxypropyl)-β-cyclodextrin for determination of PS-10 PK. Twenty-one female CD-1 mice were dosed IP with 20 mg/kg PS-8, 0.2 ml/mouse formulated as 5% ethanol and 95% of 0.1 M sodium bicarbonate pH 9.0 for determination of PS-8 PK. Animal (n=3) were sacrificed and whole blood was harvested for each time point. Plasma was processed from whole blood by centrifugation of the ACD treated blood for 10′ at 10,000 rpm in a standard centrifuge. The analytical processing of blood samples and pharmacokinetics studies using LC/MS/MS were as described previously with LC/MS/MS methods optimized for detection of PS-10 and PS-8 (33).

[10] = Half-life in vitro in hepatic S9 fractions; assay type: in vitro ADME; details: data not shown
[11] = Table 1, inhibitor 31.6 nM to 1 mM, read-out: IC50, μM for PDK2
[12] = Table 1, inhibitor 31.6 nM to 1 mM, read-out: IC50, μM for PDK4

SMILES: O=C(c1cc(Br)c(O)cc1O)N1Cc2ccccc2C1 [PA1, (5-bromo-2,4-dihydroxyphenyl)(isoindolin-2-yl)methanone]
- Kd (PDK2 [1]; ITC, read-out: Kd, nM for PDK2): 3570 nM
- IC50 (PDK2 [2]; [11]): 6.78 µM
- IC50 (PDK4 [3]; [12]): 1.86 µM

SMILES: COc1ccc(-c2c(-c3ccc(O)cc3O)n[nH]c2C)cc1 [Compound M77976]
- IC50 (PDK4 [4]): 648 µM
- IC50 (Hsp90): 4.4 µM

- Kd (PDK2 [1]): 1400 nM
SMILES: O=C(O)CCCCN1CCC(Nc2ccc3c(c2)CN(S(=O)(=O)c2ccc(O)cc2O)C3)CC1 [PS41]

SMILES: C[C@@H]1CN(C(=O)[C@@](C)(O)C(F)(F)F)[C@@H](C)CN1C(=O)c1ccc(C#N)cc1 [compound 3, (+)-1-N-[2,5-(S,R)-dimethyl-4-N-(4-cyanobenzoyl)piperazine]-(R)-3,3,3-trifluoro-2-hydroxy-2-methylpropan-amide]
- IC50 (PDK): 0.016 µM

- Kd (PDK2 [1]): 143 nM
- IC50 (PDK2 [2]): 0.61 µM
SMILES: O=S(=O)(c1ccc(O)cc1O)N1Cc2ccc(NC3CCNCC3)cc2C1 [PS35]

- Kd (PDK2 [1]): 917 nM
SMILES: O=C(O)CCCN1CCC(Nc2ccc3c(c2)CN(S(=O)(=O)c2ccc(O)cc2O)C3)CC1 [PS42]

SMILES: O=C(c1ccc(O)cc1O)N1Cc2ccccc2C1 [PA7, (2,4-dihydroxyphenyl)(isoindolin-2-yl)methanone]
- Kd (PDK2 [1]; ITC, read-out: Kd, nM for PDK2): 1830 nM
- IC50 (PDK2 [2]; [11]): 5.68 µM
- IC50 (PDK4 [3]; [12]): 1.05 µM

- Kd (PDK2 [1]): 403 nM
SMILES: O=C(C1=C[C@@H](O)[C@@H](O)[C@H](O)C1)N1CCC(Nc2ccc3c(c2)CN(S(=O)(=O)c2ccc(O)cc2O)C3)CC1 [PS40]

SMILES: C[C@@H]1C[C@H]2O[C@@H]2/C=C\C=C\C(=O)Cc2c(Cl)c(O)cc(O)c2C(=O)O1 [Radicicol, radicicol, reference compound]
- IC50 (PDK3 [5]): 230 to 400 µM
- Kd (PDK2 [1]; ITC, read-out: Kd, nM for PDK2): 18600 nM
- IC50 (PDK2 [2]; [11]): 77.8 µM

SMILES: O=S(=O)(c1ccc(O)cc1O)N1Cc2ccccc2C1 [PS2, 4-(isoindolin-2-ylsulfonyl)benzene-1,3-diol]
- Kd [6]: 50900 nM
- Kd (PDK2 [1]; ITC, read-out: Kd, nM for PDK2): 711 nM
- shift in binding affinities in favor of PDK2 (carbonyl in PA7 to sulfonyl in PS2) (PDK2 [1]; from Kd values for PDK2 and Hsp90): 4,791 fold
- IC50 (PDK2 [2]; [11]): 2.11 µM
- IC50 (PDK4 [3]; [12]): 2.2 µM

- Kd (PDK2 [1]): 188 nM
SMILES: O=S(=O)(c1ccc(O)cc1O)N1Cc2ccc(NC3CCN(CC(O)CO)CC3)cc2C1 (stereo not shown) [PS38]

SMILES: O=S(=O)(c1ccc(O)cc1O)N1Cc2ccc(O)cc2C1 [PS8, 4-((5-hydroxyisoindolin-2-yl)sulfonyl)benzene-1,3-diol]
- Kd [6]: 60100 nM
- IC50 (PDK3 [7]; absence of E2/E3BP core (−)): 13.7 ± 2.08 µM
- IC50 (PDK3 [7]; presence of E2/E3BP core (+)): 2.55 ± 0.38 µM
- IC50 (human PDK1; absence of E2/E3BP core (−)): 2.5 ± 0.14 µM
- IC50 (human PDK1; presence of E2/E3BP core (+)): 2.14 ± 0.33 µM
- Kd (PDK2 [1]; ITC, read-out: Kd, nM for PDK2): 426 nM
- IC50 (PDK2 [8]): 0.07 µM
- IC50 of all other kinases on the panel relative to PDK2 (PDK2 [8]; 21-kinase panel, next lowest CDK1/cyclin B): at least 3 orders of magnitude
- IC50 (PDK2 [2]; [11]): 1.07 µM
- IC50 (PDK2 [2]; presence of E2/E3BP core (+), read-out: IC50 for PDK2): 0.71 ± 0.14 µM
- IC50 (PDK4 [3]; [12]): 1.1 µM
- IC50 (PDK4 [3]; presence of E2/E3BP core (+), read-out: IC50 for PDK4): 0.84 ± 0.08 µM
- CL/F [9]: 1.55 mL/min
- AUC(0-t) ([9]; mouse): 5170 ng·h/mL
- Cmax ([9]; mouse): 7600 ng/mL
- Tmax ([9]; mouse): 0.167 h
- half-life ([9]; mouse, read-out: Terminal T1/2): 1.55 h
- Vd/F ([9]; mouse, read-out: Vz/F): 0.209 L
- half-life [10]: > 4 h

- Kd (PDK2 [1]): 338 nM
SMILES: O=C(C1C[C@@H](O)C(O)[C@H](O)C1)N1CCC(Nc2ccc3c(c2)CN(S(=O)(=O)c2ccc(O)cc2O)C3)CC1 (stereo partly shown) [PS39]
